The results in this text go back to ChEMBL document CHEMBL4052667 (Bioorg Med Chem, 2017).

The target of data set [1] is T1, Protein deacetylase HDAC6 (Homo sapiens, UniProt Q9UBN7).
T1 sequence (Q9UBN7 whole entry): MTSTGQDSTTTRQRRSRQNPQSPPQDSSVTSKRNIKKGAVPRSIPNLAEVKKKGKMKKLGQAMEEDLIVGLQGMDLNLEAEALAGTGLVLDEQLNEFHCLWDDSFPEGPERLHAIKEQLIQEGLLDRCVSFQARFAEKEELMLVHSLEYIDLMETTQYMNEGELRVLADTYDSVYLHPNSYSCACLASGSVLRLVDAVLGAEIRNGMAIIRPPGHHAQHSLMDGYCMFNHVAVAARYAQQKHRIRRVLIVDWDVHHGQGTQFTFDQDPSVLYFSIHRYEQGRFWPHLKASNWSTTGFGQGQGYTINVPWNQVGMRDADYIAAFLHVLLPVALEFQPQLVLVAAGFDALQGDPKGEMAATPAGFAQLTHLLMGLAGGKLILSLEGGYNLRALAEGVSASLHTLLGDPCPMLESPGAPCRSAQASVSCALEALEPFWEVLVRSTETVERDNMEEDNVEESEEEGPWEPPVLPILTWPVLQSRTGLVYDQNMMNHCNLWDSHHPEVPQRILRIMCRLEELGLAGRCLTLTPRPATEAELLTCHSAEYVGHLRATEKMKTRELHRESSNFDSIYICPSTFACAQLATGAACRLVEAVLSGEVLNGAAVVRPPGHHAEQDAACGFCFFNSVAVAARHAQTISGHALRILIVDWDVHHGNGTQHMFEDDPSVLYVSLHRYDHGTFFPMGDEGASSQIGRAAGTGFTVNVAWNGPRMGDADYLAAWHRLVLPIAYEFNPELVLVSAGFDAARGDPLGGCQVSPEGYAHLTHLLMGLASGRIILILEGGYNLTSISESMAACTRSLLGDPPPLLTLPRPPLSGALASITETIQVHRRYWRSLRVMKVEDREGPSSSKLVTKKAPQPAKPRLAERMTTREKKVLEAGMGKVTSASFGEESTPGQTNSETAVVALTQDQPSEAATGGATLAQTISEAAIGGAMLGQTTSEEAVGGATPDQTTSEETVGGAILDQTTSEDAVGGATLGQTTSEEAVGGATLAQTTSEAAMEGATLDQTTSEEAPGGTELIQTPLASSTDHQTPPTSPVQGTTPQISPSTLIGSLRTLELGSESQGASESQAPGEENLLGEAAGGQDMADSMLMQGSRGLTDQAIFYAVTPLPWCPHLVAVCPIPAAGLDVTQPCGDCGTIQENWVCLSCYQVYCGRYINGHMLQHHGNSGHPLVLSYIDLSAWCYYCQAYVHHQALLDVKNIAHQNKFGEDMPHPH
The data set can be described thus: Inhibition of HDAC6 (unknown origin) using acetylated peptide substrate preincubated for 15 mins followed by substrate addition measured after 60 mins by fluorescence analysis.

Data set [2] has as its system MDA-MB-231. The data set can be described thus: Antiproliferative activity against human MDA-MB-231 cells after 72 hrs by MTT assay. As to conditions: MDA-MB-231, 72 h. Format: functional, cell-based.
Another data set concerns HCC827. Kind of data set: Antiproliferative activity against human HCC827 cells after 72 hrs by MTT assay. It counts as functional, cell-based. As to conditions: HCC827, 72 h. For orientation: Formazan colour is commonly taken as a measure of viable cells.
A further data set has as its system K562. The data set can be described thus: Antiproliferative activity against human K562 cells after 72 hrs by MTT assay. As to conditions: K562, 72 h. It counts as functional, cell-based.
Data set [3] concerns MDA-MB-231. The data set can be described thus: Antiproliferative activity against human MDA-MB-231 cells after 5 days by MTT assay. Format: functional, cell-based. The conditions noted are these: MDA-MB-231, 120 h.
The nature of data set [4]: Safety index, ratio of compound IC50 to SAHA IC50 for human MCF10A cells. Format: ADME, cell-based, MCF-10A. As to conditions: read-out: Ratio IC50.
The subject of data set [5] is MDA-MB-231. Kind of data set: Induction of apoptosis in human MDA-MB-231 cells assessed as viable cells at 2.5 uM after 48 hrs by Annexin V-FITC/propidium iodide staining based flow cytometry (reference value: 94.9%). It counts as functional. As to conditions: MDA-MB-231, 48 h, read-out: Activity. For orientation: Flow cytometry measures light scatter and fluorescence of single cells or particles in a stream.

The test system of data set [6] is MDA-MB-231. The data set can be described thus: Induction of apoptosis in human MDA-MB-231 cells assessed as early apoptotic cells at 5 uM after 48 hrs by Annexin V-FITC/propidium iodide staining based flow cytometry (reference value: 1.27%). It counts as functional.
Data set [7] relates to MDA-MB-231. The data set can be described thus: Induction of apoptosis in human MDA-MB-231 cells assessed as increase in cleave PARP level measured after 24 hrs by Western blot analysis. Format: functional, cell-based.
For another data set, the species on record is Homo sapiens. Kind of data set: Inhibition of HDAC in human MDA-MB-231 cells assessed as increase in acetylation of histone H3K9 level up to 10 uM after 24 hrs by Western blot analysis. Format: cell-based. On the technique in general: In western blotting, separated proteins are transferred to a membrane and probed.
Data set [8] has as its system MDA-MB-231. The data set can be described thus: Induction of apoptosis in human MDA-MB-231 cells assessed as increase in gamma-H2AX level up to 10 uM after 24 hrs by Western blot analysis. Format: functional, cell-based.
Data set [9] concerns MDA-MB-231. Kind of data set: Induction of apoptosis in human MDA-MB-231 cells assessed as increase in cleave caspase-3 level up to 10 uM measured after 24 hrs by Western blot analysis. It counts as functional, cell-based.
The subject of data set [10] is MDA-MB-231. Kind of data set: Induction of apoptosis in human MDA-MB-231 cells after 48 hrs by Annexin V-FITC/propidium iodide staining based flow cytometry. It counts as functional, cell-based.

What is called IC50 is the concentration that gives 50% inhibition. Lower therefore signals greater potency.

SMILES strings stand for the structures. Active and inactive are the calls of the source. The rule behind the calls is not given here.

With `O=C(/C=C/c1ccc(CCNC(=O)c2cc(Cc3n[nH]c(=O)c4ccccc34)ccc2F)cc1)NO`, the half-maximal inhibitory concentration (IC50) amounted to 8.21 nM in data set [1]; 1540 nM with MDA-MB-231 [2]; 1790 nM in the data set with HCC827; 5.55 µM in the data set on K562; 220 nM in the data set on MDA-MB-231 [3]. Also, the selectivity ratio in [4] was determined as 4.1. Further, the viability at 2.5 µM in the data set on MDA-MB-231 [5] came to 79.2%. Also, the Activity was 28.6% with MDA-MB-231 [6], “Dose-dependent effect” in the data set on MDA-MB-231 [7] and “Dose-dependent effect” in the data set on MDA-MB-231 [10]. The inhibition entry in the data set listed under Homo sapiens is “Active”. The outcome in the data set on MDA-MB-231 [8] and in the data set with MDA-MB-231 [9] was Active.
